Data taken from patent publication US9393314B2, “Meloxicam eye drops and preparation method and use thereof” (KANGYA OF NINGXIA PHARMACEUTICALS CO., LTD., priority 2013, dated 2016).
Marks after values point to notes of the source that are not given here.

Test system: rabbit eyes (aqueous humor protein concentration)
Experiment: Rabbit eye anterior chamber puncture test
Assay type: in vivo
Description: Thirty-six rabbits without ocular abnormalities were taken and randomly divided into six groups, with six rabbits in each group. The groups are respectively saline group, medium control group, positive control group of diclofenac sodium, 0.025%, 0.05% and 0.1% meloxicam eye drops groups. Then 0.05 mL drug solution was dropped into the rabbit eyes for experiment. The eyes were forced to be closed for 10 seconds; 45 minutes later, under local anesthesia with 0.2 mL of 1% tetracaine drops, puncturing was performed with 41/2 needle from the edge of the limbus to take 0.2 mL of primary aqueous humor; 90 minutes later, puncturing was performed again to take the secondary aqueous humor. Those two batches of aqueous humor were diluted 2-fold and 50-fold respectively. Then 0.05 mL of distilled water, aqueous humor dilution and protein standard solution were taken, 3 mL Coomassie brilliant blue staining solution was added thereto respectively, after 10 minutes of reaction, their absorbance values at 595 nm were measured, and the protein content was calculated according to the following formula: [formula]

O=C(O)Cc1ccccc1Nc1c(Cl)cccc1Cl [Diclofenac sodium]
Protein concentration in aqueous humor, Primary (0.05 ml/eye, puncture 45 minutes after dosing, x ± s, n 6): 0.52 ± 0.19 mg/mL
Protein concentration in aqueous humor, Secondary (0.05 ml/eye, second puncture 90 minutes later, x ± s, n 6): 18.05 ± 3.01**^ΔΔ mg/ml
inhibition of the increase in aqueous humor protein concentration caused by puncture of anterior chamber (vs saline and medium control groups): significantly inhibit
